This note sets out measurements from US12295936B2, “Immunomodulating urea azalides” (Zoetis Services LLC, priority 2020, dated 2025).

In brackets after ≈: the same amount, converted by molar mass. Read-outs that look alike come from different tables or passages of the source.

In one experiment the test system is E. coli. Nature of the experiment: In-vitro MIC model (CLSI broth micro-dilution). The conditions noted are these: Escherichia coli, ATCC25922, read-out: Comparative MIC's, E. coli ATCC 25922. For orientation: Broth dilution looks for growth in wells or tubes with falling amounts of substance.
The test system of the next experiment is IL-6. Nature of the experiment: Plasma IL-6 biomarker in bovine M. haemolytica challenge. The conditions noted are these: bovine, in vivo.
In experiment [1] the test system is P. multocida. Nature of the experiment: Murine P. multocida intranasal challenge study with lung tissue RNA sequence analysis. It is filed as in vivo, mice. The conditions noted are these: subcutaneous 18 hours after challenge (5×10^3 CFU/mouse): tulathromycin 16 mg/kg, M9 32 mg/kg, ceftiofur 9 mg/kg; placebo 0%. The procedure:
In one murine P. multocida intranasal challenge study, mice were administered tulathromycin (16 mg/kg; T02), M9 (32 mg/kg; T03), or ceftiofur (9 mg/kg; T04) by subcutaneous injection 18 hours after bacterial challenge (5×10^3 CFU/mouse) for lung tissue RNA sequence analysis. Survival at Day 7 was about 80%, 50%, and 90% for T02, T03, and T04, respectively, compared to placebo at 0%. Differential gene expression from total lung tissue RNA sequence analysis indicated at least 226 unique genes were up or down regulated (with significance) for T03. Output from ingenuity pathway analysis of these unique genes predicted major upstream regulators of the involved pathways. Data was analyzed based on the number of genes being modulated in the same direction that were associated with a given upstream regulator. An activation z-score of 2 or greater is considered significant and the direction change is indicated by +(activated) or − (inhibited). The top 5 pathways included: IL-9 signaling, glucocorticoid receptor signaling, prolactin signaling, JAK STAT signaling, and IL-17 signaling. The top 6 upstream regulators (activation z-score) included: lipopolysaccharide (−6.725), TNF (−4.669), IFNG (−5.759), IL-1β (−5.947), STAT1 (−2.787), and poly rl:rC-RNA (−5.289). Even though this study was run in the murine model, the top upstream regulators identified as being modulated by M9 include an almost ubiquitous overlap with the pathways identified in the natural disease study as being key mediators in BRD, and therefore is modulating highly relevant pathways in BRD pathobiology.

Experiment [2] concerns P. multocida. Nature of the experiment: In-vitro MIC model (CLSI broth micro-dilution). The conditions noted are these: Pasteurella multocida, ATCC43137, read-out: Comparative MIC's, P. multocida ATCC 43137.
For the next experiment, the system named is M. haemolytica. Put plainly: In-vitro MIC model (CLSI broth micro-dilution). The conditions noted are these: Mannheimia haemolytica.

With `CCCNC[C@]1(O)[C@H](C)O[C@@H](O[C@H]2[C@H](C)[C@@H](O[C@@H]3O[C@H](C)C[C@H](N(C)C)[C@H]3O)[C@](C)(O)C[C@@H](C)CN[C@H](C)[C@@H](O)[C@](C)(O)[C@@H](CC)OC(=O)[C@@H]2C)C[C@@]1(C)OC` [Tulathromycin, (2R,3S,4R,5R,8R,10R,11R,12S,13S,14R)-11-(((2S,3R,4S,6R)-4-(dimethylamino)-3-hydroxy-6-methyltetrahydro-2H-pyran-2-yl)oxy)-2-ethyl-3,4,10-trihydroxy-13-(((2R,4R,5S,6S)-5-hydroxy-4-methoxy-4,6-dimethyl-5-((propylamino)methyl)tetrahydro-2H-pyran-2-yl)oxy)-3,5,8,10,12,14-hexamethyl-1-oxa-6-azacyclopentadecan-15-one], the MIC in the experiment with E. coli was 2 µg/mL (≈ 2.48 µM); in the experiment with P. multocida [2] it was 1 µg/mL (≈ 1.24 µM); with M. haemolytica (ATCC33396, read-out: Comparative MIC's, M. haemolytica ATCC 33396), 1 µg/mL (≈ 1.24 µM); with M. haemolytica (read-out: Comparative MIC's, M. haemolytica 12726) it was 2 µg/mL (≈ 2.48 µM); with M. haemolytica (read-out: Comparative MIC's, M. haemolytica 46571*), 1 µg/mL (≈ 1.24 µM). The “IL-6 levels (plasma) in bovine M. haemolytica challenge” value with IL-6 is recorded as “significantly reduced”. The “Survival at Day 7” value with P. multocida [1] was “about 80%”.

As a reminder, the MIC is the least concentration at which growth counts as inhibited.
